In paper PMC12444472, “BCI inhibits MKP3 by targeting the kinase-binding domain and disrupting ERK2 interaction” (The Journal of Biological Chemistry, 2025):
Several values for one entry are separate records, joined by “and”; a condition that tells them apart may be missing. Equal values may be shown once.

What was measured:
MKP3^FL [1] = biological target: T1, MKP3^FL (Homo sapiens, UniProt Q16828); assay: Phosphatase activity toward pNPP in the presence of ERK2; type: biochemical
T1 construct: MKP3(1–381) (MKP3^FL); made in house; host or cells: Escherichia coli BL21(DE3)
T1 sequence (Q16828 1-381): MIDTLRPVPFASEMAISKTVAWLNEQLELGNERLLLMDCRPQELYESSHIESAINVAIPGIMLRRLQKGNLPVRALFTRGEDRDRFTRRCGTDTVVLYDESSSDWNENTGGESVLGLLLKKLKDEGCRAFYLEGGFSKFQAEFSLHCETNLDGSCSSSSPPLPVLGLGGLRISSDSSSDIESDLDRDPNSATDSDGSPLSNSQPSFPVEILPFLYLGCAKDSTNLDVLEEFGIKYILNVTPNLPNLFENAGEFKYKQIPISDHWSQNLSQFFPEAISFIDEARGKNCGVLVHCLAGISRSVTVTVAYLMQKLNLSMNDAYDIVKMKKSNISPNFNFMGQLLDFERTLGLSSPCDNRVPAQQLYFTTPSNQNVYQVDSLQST
Experimental: The phosphatase activity of MKP3 toward pNPP was measured using continuous spectrophotometric assays, either in the absence or the presence of ERK2 at a 1:1 M ratio with MKP3. Experiments were conducted at 25 °C in a reaction mixture with a total volume of 1.8 ml, containing 50 mM Mops (pH 7.0), 100 mM NaCl, and 0.1 mM EDTA. MKP3 (1 μM) was preincubated with varying concentrations of the inhibitor BCI for 5 min before initiating the reaction by adding pNPP at concentrations ranging from 0 to 14 mM. Continuous absorbance changes were recorded using a PerkinElmer LAMBDA 45 spectrophotometer equipped with a magnetic stirrer in the cuvette holder. The production of p-nitrophenol was monitored at 410 nm using an extinction coefficient of 18,000 M^-1 cm^-1.
Stock solutions of BCI (dissolved in DMSO) at different concentrations were prepared to maintain a constant DMSO concentration across all BCI concentrations in the phosphatase inhibition assays, thereby eliminating potential effects of varying DMSO levels on detection. Initial reaction rates were determined from the linear slope of progress curves, and the data were analyzed using nonlinear regression. Kinetic parameters (kcat and Km) were obtained by fitting the data to the Michaelis–Menten equation: v0 = kcat[E][S]/(Km + [S]). […]

MKP2^KBD = biological target: T2, MKP2^KBD (Homo sapiens, UniProt Q13115); assay: MST affinity measurement; settings: one-site binding model, mean ± SD of three experiments
T2 construct: MKP2(5–159) (MKP2^KBD); made in house; host or cells: Escherichia coli BL21(DE3)
T2 sequence (Q13115 5-159): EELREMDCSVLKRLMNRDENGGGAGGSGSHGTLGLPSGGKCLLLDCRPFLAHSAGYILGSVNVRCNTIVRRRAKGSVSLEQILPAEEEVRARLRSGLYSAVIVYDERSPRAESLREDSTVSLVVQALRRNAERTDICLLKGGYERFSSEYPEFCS
Experimental: (§1) MST measurements were performed using fluorescently labeled proteins and the inhibitor BCI (CAS: 1245792-51-1; TargetMol) on a Monolith instrument (NanoTemper Technologies). The RED–Tris–NTA second-generation dye was dissolved in MST buffer (20 mM Hepes, pH 7.4, 200 mM NaCl, and 0.05% Tween-20) to prepare a 5 μM stock solution. Fluorescent labeling of MKP proteins followed the standard protocol of the MO-L018 RED–Tris–NTA protein labeling kit, leveraging the His-tag–dye interaction.
(§2) The BCI compound was prepared as a 600 to 750 μM stock solution in MST buffer with 10% DMSO to enhance solubility, followed by a 16-point serial dilution. The diluted BCI solutions were thoroughly mixed with labeled MKP proteins (50 nM) at a 1:1 volume ratio, yielding a final volume of 10 μl. The reaction mixtures were incubated in the dark for 10 min at room temperature before being loaded into standard glass capillaries. Measurements were carried out on the Monolith instrument (100% LED, 40% IR laser power) with a 20 s laser on time. The normalized fluorescence values from triplicate measurements were averaged at each concentration and fitted to a 1:1 binding model using the KD model in MO.Affinity software (v3.0.5, NanoTemper Technologies) to determine the binding affinities between MKP proteins and the BCI inhibitor. The final reported Kd value represents the mean ± SD of Kd values obtained from three independent experiments, each fitted separately.

MKP5^KBD = biological target: T3, MKP5^KBD (Homo sapiens, UniProt Q9Y6W6); assay: MST affinity measurement; settings: one-site binding model, mean ± SD of three experiments
T3 construct: MKP5(139–287) (MKP5^KBD); made in house; host or cells: Escherichia coli BL21(DE3)
T3 sequence (Q9Y6W6 139-287): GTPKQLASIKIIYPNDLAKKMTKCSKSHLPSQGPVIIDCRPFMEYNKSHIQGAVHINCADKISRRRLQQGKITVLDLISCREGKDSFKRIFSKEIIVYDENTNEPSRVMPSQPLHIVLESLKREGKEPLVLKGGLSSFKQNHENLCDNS
Experimental: as §1, §2

MKPX^KBD = biological target: T4, MKPX^KBD (Homo sapiens, UniProt Q16829); assay: MST affinity measurement; settings: one-site binding model, mean ± SD of three experiments
T4 construct: MKPX(1–140) (MKPX^KBD); made in house; host or cells: Escherichia coli BL21(DE3)
T4 sequence (Q16829 1-140 isoform Q16829-2): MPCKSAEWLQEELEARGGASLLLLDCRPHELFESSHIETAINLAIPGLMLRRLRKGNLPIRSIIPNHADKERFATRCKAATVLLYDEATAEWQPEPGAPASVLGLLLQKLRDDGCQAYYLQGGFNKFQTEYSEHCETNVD
Experimental: as §1, §2

MKP3^KBD = biological target: T5, MKP3^KBD (Homo sapiens, UniProt Q16828); assay: MST affinity measurement; settings: one-site binding model, mean ± SD of three experiments
T5 construct: MKP3(1–154) (MKP3^KBD); made in house; host or cells: Escherichia coli BL21(DE3)
T5 sequence (Q16828 1-154): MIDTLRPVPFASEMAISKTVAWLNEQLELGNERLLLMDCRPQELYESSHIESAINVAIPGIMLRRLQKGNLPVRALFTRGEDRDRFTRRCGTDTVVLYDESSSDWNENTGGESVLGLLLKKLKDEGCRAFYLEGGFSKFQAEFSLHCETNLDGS
Experimental: as §1, §2

MKP3^FL [2] = biological target: T1, MKP3^FL; assay: MST affinity measurement; settings: one-site binding model, mean ± SD of three experiments
Experimental: as §1, §2

MKP1^KBD = biological target: T6, MKP1^KBD (Homo sapiens, UniProt P28562); assay: MST affinity measurement; settings: one-site binding model, mean ± SD of three experiments
T6 construct: MKP1(1–141) (MKP1^KBD); made in house; host or cells: Escherichia coli BL21(DE3)
T6 sequence (P28562 1-141): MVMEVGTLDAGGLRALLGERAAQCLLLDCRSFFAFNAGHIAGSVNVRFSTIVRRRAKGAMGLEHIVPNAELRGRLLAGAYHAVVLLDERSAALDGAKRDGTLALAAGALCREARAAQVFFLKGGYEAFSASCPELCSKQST
Experimental: as §1, §2

ERK2-induced MKP3 activity relative to its initial level (MKP3^FL [1]; BCI at molar concentration 20 times that of ERK2): one-seventh | effect on MKP3's Michaelis constant (Km) for pNPP (MKP3^FL [1]; ERK2 at 1:1 with MKP3^FL): did not significantly alter | Kd (MKP2^KBD): ~49 µM and 49 µM | Kd (MKP5^KBD): ~8.5 µM and 8.5 µM | Kd (MKPX^KBD): ~14.1 µM and 14.1 µM | Kd (MKP3^KBD): 15 µM and ~15 µM | Kd (MKP3^FL [2]): 9.2 ± 1.8 µM | Kd (MKP1^KBD): ~73.1 µM and 73.1 µM
SMILES: O=C1/C(=C/c2ccccc2)C(NC2CCCCC2)c2ccccc21 (centres unmarked) [BCI, (E)-2-benzylidene-3-(cyclohexylamino)-2,3-dihydro-1H-inden-1-one]
